{"source": "patent US9023878B2", "about": "(Neurophyxia B.V., priority 2010, dated 2015)", "key": {"[1]": {"test": "Solubility of 2-IB in water at different pH", "type": "physicochemical"}, "[2]": {"test": "Solubility of 2-IB (5 mg/ml) using different acids", "type": "physicochemical"}, "[3]": {"test": "Formulation preparation: dissolution and titration to higher pH", "type": "physicochemical", "conditions": "1.5 mg/g of 2-IB at pH 7.0, overnight stirring", "excerpt": "This might be due to the different approaches for the solubility testing and the formulation preparation. […] The six formulations were all transparent and colorless solutions.\nIt is not feasible to increase the solubility by preparing a formulation at a low pH first and then titrate to a high pH."}, "[4]": {"test": "Visual inspection after 12 hours storage at 5° C.", "type": "physicochemical"}, "piglets": {"system": "piglets", "conditions": "versus allopurinol or deferoxamine; cited from earlier work"}, "[5]": {"test": "Surfactants: stepwise solubility in surfactant solutions in 5% dextrose", "type": "physicochemical", "conditions": "nominal 1.6 mg/ml, without addition of acid", "protocol": "Stock solutions of the surfactant were prepared in 5% dextrose."}, "[6]": {"test": "Physical stability of saturated 10% SBE-CD solutions, 5 days at 5° C. and RT; also: key: −: Precipitation of 2-IB; +: no precipitation", "type": "physicochemical", "conditions": "saturated solution"}, "[7]": {"test": "Solubility of 2-IB in 10% SBE-CD at different pH adjusted with 0.1 M citric acid (HPLC)", "type": "physicochemical", "protocol": "The experimental steps are shown as below.\n1. Weigh 0.5 g of SBE-CD into 10 ml glass vial\n2. Add 3 ml WFI into each vial to dissolve SBE-CD\n4. Magnetic stirring for 1 h\n5. Adjust pH to target pH with 0.1 M citric acid\n6. Determine the weight of 0.1 M citric acid added\n7. Add WFI to total weight of 5 g\n8. Measure pH again after 1 hour stirring\n9. Filtrate through the formulation through PVDF 0.22 um filter"}, "[8]": {"excerpt": "Necropsy took place approximately one hour after the second injection. Blood and brain samples were collected for both the mother and fetuses."}, "[9]": {"test": "Solubility of 2-IB in 10% SBE-CD at different pH adjusted with 0.1 M citric acid (HPLC)", "type": "physicochemical", "remark": "listed apart in the source"}, "[10]": {"test": "Solubility/encapsulation in cyclodextrin solutions (excess 2-IB, three days, filtered, RP-HPLC)", "conditions": "0% cyclodextrin, Citrate pH 4.0, final pH 4.0", "procedure": "An excess of 2-IB was added to the cyclodextrin solutions, mixed at room temperature for three days and then filtered to remove non-encapsulated) non-solubilised 2-IB."}, "[11]": {"conditions": "960 mg/kg/24 h 2-IB in 5% Solutol, continuous iv infusion"}, "[12]": {"conditions": "average of 4 litters, maternal dose 55 mg/kg sc, 55 mg/kg"}, "[13]": {"conditions": "average of 4 maternal rats, 55 mg/kg sc, 55 mg/kg"}, "[14]": {"conditions": "pooled female fetuses per maternal rat, maternal dose 55 mg/kg sc, 55 mg/kg"}, "[15]": {"conditions": "pooled male fetuses per maternal rat, maternal dose 55 mg/kg sc, 55 mg/kg"}}, "note": "Where “and” joins values, the source holds several entries; their conditions need not be identical. Equal entries are not always repeated. Marks after values point to notes of the source that are not given here."}
{"smiles": "N=C1N[C@H]2[C@H](CS[C@H]2CCCCC(=O)O)N1", "note": "[Formulation 2-IB, 2-iminobiotin]", "values": [{"measurement": "solubility in water", "setting": "[1]; pH 3.5", "value": "around 4.5 mg/ml"}, {"measurement": "solubility in water", "setting": "[1]; pH 5", "value": "around 0.59 mg/ml"}, {"measurement": "solubility in water", "setting": "[1]; pH 7.4", "value": "around 0.34 mg/ml"}, {"measurement": "bilirubin levels", "setting": "Wistar rats; [11]", "value": "within the normal range"}, {"measurement": "body weights", "setting": "Wistar rats; [11]", "value": "increased for two animals"}, {"measurement": "clinical chemistry at the end of treatment", "setting": "Wistar rats; [11]", "value": "slight to moderate increase in aspartate aminotransferase (1/2), alkaline phosphatase (1/2), and glucose (2/2)"}, {"measurement": "creatinine and urine at the end of treatment", "setting": "Wistar rats; [11]", "value": "high values for creatinine and urine (1/2)"}, {"measurement": "macroscopic findings at necropsy", "setting": "Wistar rats; [11]", "value": "oedema (2/3), pelvic dilation of the kidneys (2/3), enlarged liver (1/3), enlarged iliac lymph node (113), dark spots on the lungs (1/3), and fibrin-like coating in or around the femoral vein"}, {"measurement": "clinical signs", "setting": "Wistar rats; 960 mg/kg/24 h 2-IB in 5% Solutol, continuous iv infusion, Days 2-3", "value": "hunched posture, piloerection and pallor"}, {"measurement": "mortality", "setting": "Wistar rats; 960 mg/kg/24 h 2-IB in 5% Solutol/5% dextrose, continuous iv infusion 4 mL/kg/h, terminated after 46 hours", "value": "One animal died after 46 hours of infusion"}, {"measurement": "pH at which solubility was achieved", "setting": "[2]; HCl", "value": 3.0}, {"measurement": "pH at which solubility was achieved", "setting": "[2]; weak acids (acetic acid and citric acid)", "value": 3.3}, {"measurement": "dissolution on formulation preparation", "setting": "[3]", "value": "did not dissolve completely after overnight stirring"}, {"measurement": "Appearance after 12 hours at 5° C.", "setting": "[4]; saturated in 50 mM Citrate pH 3.0", "value": "Precipitated"}, {"measurement": "Appearance after 12 hours at 5° C.", "setting": "[4]; saturated in 50 mM Citrate pH 3.5", "value": "Precipitated"}, {"measurement": "Appearance after 12 hours at 5° C.", "setting": "[4]; saturated in 50 mM Citrate pH 4.0", "value": "Precipitated"}, {"measurement": "Appearance after 12 hours at 5° C.", "setting": "[4]; saturated in 50 mM Citrate pH 4.5", "value": "Precipitated"}, {"measurement": "Appearance after 12 hours at 5° C.", "setting": "[4]; saturated in 50 mM Citrate pH 5.0", "value": "Precipitated"}, {"measurement": "effectiveness in preventing and/or treating effects of perinatal asphyxia", "setting": "piglets", "value": "more effective"}, {"measurement": "solubility, visually judged", "setting": "[5]", "value": "did not dissolve in any of the surfactant solutions"}, {"measurement": "5 days at 5° C.", "setting": "[6]; pH 4.0", "value": "−"}, {"measurement": "5 days at RT", "setting": "[6]; pH 4.0", "value": "+"}, {"measurement": "5 days at 5° C.", "setting": "[6]; pH 4.5", "value": "−"}, {"measurement": "5 days at RT", "setting": "[6]; pH 4.5", "value": "+"}, {"measurement": "5 days at 5° C.", "setting": "[6]; pH 5.0", "value": "−"}, {"measurement": "5 days at RT", "setting": "[6]; pH 5.0", "value": "+"}, {"measurement": "5 days at 5° C.", "setting": "[6]; pH 5.1", "value": "−"}, {"measurement": "5 days at RT", "setting": "[6]; pH 5.1", "value": "+"}, {"measurement": "5 days at 5° C.", "setting": "[6]; pH 5.5", "value": "−"}, {"measurement": "5 days at RT", "setting": "[6]; pH 5.5", "value": "+"}, {"measurement": "5 days at 5° C.", "setting": "[6]; pH 6.2", "value": "−"}, {"measurement": "5 days at RT", "setting": "[6]; pH 6.2", "value": "+"}, {"measurement": "5 days at 5° C.", "setting": "[6]; pH 7.0", "value": "−"}, {"measurement": "5 days at RT", "setting": "[6]; pH 7.0", "value": "+"}, {"measurement": "Solubility of 2-IB", "setting": "[7]; pH 4.0", "value": 13.08, "unit": "mg/g"}, {"measurement": "Solubility of 2-IB", "setting": "[7]; pH 4.5", "value": 9.00, "unit": "mg/g"}, {"measurement": "Solubility of 2-IB", "setting": "[7]; pH 5.0", "value": "5.2 mg/g and 5.21 mg/g"}, {"measurement": "Solubility of 2-IB", "setting": "[7]; pH 5.1", "value": 5.30, "unit": "mg/g"}, {"measurement": "Solubility of 2-IB", "setting": "[7]; pH 5.5", "value": 3.29, "unit": "mg/g"}, {"measurement": "Solubility of 2-IB", "setting": "[7]; pH 6.2", "value": 1.94, "unit": "mg/g"}, {"measurement": "Solubility of 2-IB", "setting": "[7]; pH 7.0", "value": 1.71, "unit": "mg/g"}, {"measurement": "mortality of maternal animals", "setting": "[8]; 55 mg/kg sc, Day 20 post-coitum", "value": "No mortality occurred"}, {"measurement": "2-IB concentration in brain, female fetuses, average (±SD)", "setting": "[8]; [12]", "value": "369 ng/g and 369 (±72) ng/g"}, {"measurement": "2-IB concentration in brain, male fetuses, average (±SD)", "setting": "[8]; [12]", "value": "329 ng/g and 329 (±72) ng/g"}, {"measurement": "2-IB plasma concentration, female fetuses, average (±SD)", "setting": "[8]; [12]", "value": "1,903 ng/mL and 1,903 (±437) ng/mL"}, {"measurement": "2-IB plasma concentration, male fetuses, average (±SD)", "setting": "[8]; [12]", "value": "1,765 ng/mL and 1,765 (±259) ng/mL"}, {"measurement": "2-IB concentration in brain, maternal, average (±SD)", "setting": "[8]; [13]", "value": "268 ng/g and 268 (±92) ng/g"}, {"measurement": "2-IB plasma concentration, maternal, average (±SD)", "setting": "[8]; [13]", "value": "10,039 ng/mL and 10,039 (±3371) ng/mL"}, {"measurement": "2-IB concentration in brain sample, maternal", "setting": "[8]; individual maternal Wistar rats, 55 mg/kg sc, 55 mg/kg", "value": "151 ng/g and 375 ng/g and 270 ng/g and 276 ng/g"}, {"measurement": "2-IB plasma concentration, maternal", "setting": "[8]; individual maternal Wistar rats, Day 20 post-coitum, 2 sc injections of 27.5 mg/kg, approximately one hour after second injection, 27.5 mg/kg", "value": "7,104 ng/mL and 14,185 ng/mL and 7,490 ng/mL and 11,378 ng/mL"}, {"measurement": "2-IB concentration in brain sample, pooled fetuses (females)", "setting": "[8]; [14]", "value": "474 (n = 3) ng/g and 317 (n = 8) ng/g and 329 (n = 4) ng/g and 356 (n = 7) ng/g"}, {"measurement": "2-IB plasma concentration, pooled fetuses (females)", "setting": "[8]; [14]", "value": "2,442* (n = 3) ng/mL and 2,063 (n = 8) ng/mL and 1,474 (n = 4) ng/mL and 1,634 (n = 7) ng/mL"}, {"measurement": "2-IB concentration in brain sample, pooled fetuses (males)", "setting": "[8]; [15]", "value": "287 (n = 8) ng/g and 435 (n = 4) ng/g and 283 (n = 5) ng/g and 309 (n = 8) ng/g"}, {"measurement": "2-IB plasma concentration, pooled fetuses (males)", "setting": "[8]; [15]", "value": "1,868 (n = 8) ng/mL and 2,080 (n = 4) ng/mL and 1,598 (n = 5) ng/mL and 1,512 (n = 8) ng/mL"}, {"measurement": "transfer over the placenta and the blood-brain barrier", "setting": "[8]; two sc injections, total dose level 55 mg/kg", "value": "confirmed"}, {"measurement": "solubility with pH-adjustment alone", "setting": "[9]; pH 4.0, without SBE-CD", "value": 1.72, "unit": "mg/g"}, {"measurement": "solubility with pH-adjustment alone", "setting": "[9]; pH 5.0, without SBE-CD", "value": 0.59, "unit": "mg/g"}, {"measurement": "concentration of 2-IB", "setting": "[10]", "value": 1700, "unit": "µg/mL"}]}
